Reference: patent US20160287621A1, “BIOLOGICAL PRODUCTION OF NAD PRECURSORS AND ANALOGS” (PRESIDENT AND FELLOWS OF HARVARD COLLEGE, priority 2013, published 2016)

Key:
[1] = test system: Human dermal fibroblasts (HDFa); assay: NAD+ levels in human dermal fibroblasts treated for 24 hrs; type: cell-based
Procedure: A and B) Human dermal fibroblasts (HDFa) were treated with various concentration of NMN extract or pure NMN from Sigma (St. Louis, Mo.) respectively for 24 hrs and NAD+ levels were determined.
A) and B) Human dermal fibroblasts (HDFa) were treated with 50 μM of pure NMN and different concentration of Folate or S-adenosyl-L-methionine (SAM) respectively for 24 hrs and NAD^+ levels were determined.
The effect of pure NMN and partially purified NMN extract on the NAD^+ level in cells was investigated. Briefly, human dermal fibroblasts (HDFa) were treated with varying concentrations of NMN extract or pure NMN for 24 hours and NAD^+ levels were determined. Pure NMN was obtained from Sigma. Partially purified NMN extract was obtained using the methods described above.

[2] = cigarette smokers, small clinical trial; cited from earlier work

SMILES: C[S+](CC[C@H](N)C(=O)O)C[C@H]1O[C@@H](n2cnc3c(N)ncnc32)[C@H](O)[C@@H]1O (stereo partly drawn) [SAM, S-adenosyl-L-methionine]
- effect for raising NAD+ levels in combination with NMN ([1]; 50 μM pure NMN plus different concentrations of Folate or SAM, 24 hrs): synergistic effect

SMILES: NC(=O)c1ccc[n+]([C@@H]2O[C@H](COP(=O)([O-])O)[C@@H](O)[C@H]2O)c1 [Pure NMN, nicotinamide mononucleotide]
- NAD+ levels in cells ([1]; varying concentrations, 24 hours): increased levels of NAD^+

SMILES: Cc1nc(-c2cccnc2)sc1C(=O)Nc1ccccc1-c1cn2c(CN3CCOCC3)csc2n1 [SRT2104]
- serum lipid profile (total cholesterol, LDL and triglycerides) [2]: improved the serum lipid profile
